Source: the NIST ThermoML archive (doi:10.1016/j.jct.2016.07.041)
± gives the expanded uncertainty stated by the source.

Experiments:
[1] = 101.33 kPa, Liquid; for viscosity: Capillary tube (Ostwald / Ubbelohde) method; for mass density: Vibrating tube method
[2] = xn = mol fraction of the nth substance listed; settings: 101 kPa, Liquid, x1 = 1; for viscosity: Capillary tube (Ostwald / Ubbelohde) method; for mass density: Vibrating tube method

SMILES | viscosity ([1]; 293.15 K) [mPa·s] | mass density ([1]; 293.15 K) [kg/m3] | viscosity ([1]; 303.15 K) [mPa·s] | mass density ([1]; 303.15 K) [kg/m3] | viscosity ([1]; 313.15 K) [mPa·s] | mass density ([1]; 313.15 K) [kg/m3] | viscosity ([1]; 323.15 K) [mPa·s] | mass density ([1]; 323.15 K) [kg/m3] | viscosity ([1]; 333.15 K) [mPa·s] | mass density ([1]; 333.15 K) [kg/m3] | viscosity ([2]; 293.15 K) [mPa·s] | mass density ([2]; 293.15 K) [kg/m3] | viscosity ([2]; 303.15 K) [mPa·s] | mass density ([2]; 303.15 K) [kg/m3] | viscosity ([2]; 313.15 K) [mPa·s] | mass density ([2]; 313.15 K) [kg/m3] | viscosity ([2]; 323.15 K) [mPa·s] | mass density ([2]; 323.15 K) [kg/m3] | viscosity ([2]; 333.15 K) [mPa·s] | mass density ([2]; 333.15 K) [kg/m3]
CCCCn1cc[n+](C)c1.F[B-](F)(F)F [1-butyl-3-methylimidazolium tetrafluoroborate] | 139.12 ± 8.7 | 1205.1 ± 1.2 | 82.49 ± 5 | 1198 ± 1.2 | 52.33 ± 3.1 | 1190.8 ± 1.2 | 35.16 ± 2.1 | 1183.7 ± 1.2 | 24.69 ± 1.5 | 1176.8 ± 1.2 | – | – | – | – | – | – | – | – | – | –
NCCO [2-aminoethan-1-ol] | 23.65 ± 1.4 | 1015.5 ± 1 | 14.75 ± 0.89 | 1007.6 ± 1 | 9.78 ± 0.59 | 999.7 ± 1 | 6.81 ± 0.41 | 991.7 ± 1 | 4.99 ± 0.3 | 983.6 ± 1 | – | – | – | – | – | – | – | – | – | –
CCCCn1cc[n+](C)c1.F[B-](F)(F)F [1-butyl-3-methylimidazolium tetrafluoroborate] + NCCO | – | – | – | – | – | – | – | – | – | – | 139.12 ± 8.7 | 1205.1 ± 1.2 | 82.49 ± 5 | 1198 ± 1.2 | 52.33 ± 3.1 | 1190.8 ± 1.2 | 35.16 ± 2.1 | 1183.7 ± 1.2 | 24.69 ± 1.5 | 1176.8 ± 1.2
